Data taken from the NIST ThermoML archive (doi:10.1016/j.jct.2018.08.005).

Assay: xn = mol fraction of the nth substance listed
Conditions: Liquid; for mass density: Vibrating tube method; for speed of sound: Frequency=3 MHz, Pulse-echo method

CCOC(F)(C(F)(F)C(F)(F)C(F)(F)F)C(F)(C(F)(F)F)C(F)(F)F (stereo not given) [2-trifluoromethyl-3-ethoxydodecafluorohexane] + CC(C)OC(C)C
Conditions	mass density, x1 = 0.25 [kg/m3]	mass density, x1 = 0.375 [kg/m3]	mass density, x1 = 0.5 [kg/m3]	mass density, x1 = 0.625 [kg/m3]	mass density, x1 = 0.75 [kg/m3]	speed of sound, x1 = 0.25 [m/s]	speed of sound, x1 = 0.375 [m/s]	speed of sound, x1 = 0.5 [m/s]	speed of sound, x1 = 0.625 [m/s]	speed of sound, x1 = 0.75 [m/s]
313.15 K, 50000 kPa	–	–	–	1451.1	1541	–	–	–	–	–
313.15 K, 60000 kPa	1111.4	1244.1	1360.5	1464.9	1555.4	1065.1	1009.2	967.9	946.8	921.7
313.15 K, 70000 kPa	1121.5	1255	1372.6	1477.7	1568.7	–	–	–	–	–
313.15 K, 80000 kPa	1130.9	1265.4	1383.8	1489.6	1581.1	1141.4	1082.8	1039.3	1017.4	990.1
313.15 K, 90000 kPa	1139.7	1275.3	1394.3	1500.7	1592.6	–	–	–	–	–
313.15 K, 100000 kPa	1148	1284.4	1404.2	1511.1	1603.5	1209.6	1148.8	1102.9	1079.9	1050.9
313.15 K, 110000 kPa	1156	1293.2	1413.7	1521.2	1614	–	–	–	–	–
313.15 K, 120000 kPa	1163.3	1301.3	1422.4	1530.6	1623.6	–	–	–	–	–
313.15 K, 130000 kPa	1170.4	1309.4	1431	1539.5	1633	–	–	–	–	–
313.15 K, 140000 kPa	1177.2	1316.8	1439	1548.1	1641.9	–	–	–	–	–
323.15 K, 100 kPa	1006.7	1127.2	1235	1332.2	1418.1	693.3	650	624.3	609.9	597.4
323.15 K, 10000 kPa	1029	1152.3	1262	1360.8	1447.4	–	–	–	–	–
323.15 K, 20000 kPa	1047.5	1173	1284.2	1384.2	1471.7	841.6	794.7	761.3	745.2	726.1
323.15 K, 30000 kPa	1063.3	1190.5	1303.2	1404.3	1492.5	–	–	–	–	–
323.15 K, 40000 kPa	1077.2	1206.1	1319.9	1421.9	1510.7	952.5	901	862.9	846.1	822.8
323.15 K, 50000 kPa	1089.7	1220	1334.9	1437.6	1527.2	–	–	–	–	–
323.15 K, 60000 kPa	1101	1232.6	1348.5	1452	1542.2	1043.6	987.7	946.9	927.8	902.5
323.15 K, 70000 kPa	1111.5	1244.2	1361	1465.1	1555.9	–	–	–	–	–
323.15 K, 80000 kPa	1121.1	1255	1372.5	1477.3	1568.7	1123.2	1063	1019.6	998.6	971.8
323.15 K, 90000 kPa	1130.2	1265.1	1383.4	1488.8	1580.6	–	–	–	–	–
323.15 K, 100000 kPa	1138.8	1274.5	1393.7	1499.6	1591.9	1193.8	1129.2	1084.4	1061.6	1033.7
323.15 K, 110000 kPa	1146.9	1283.5	1403.2	1509.8	1602.5	–	–	–	–	–
323.15 K, 120000 kPa	1154.5	1291.9	1412.4	1519.5	1612.5	–	–	–	–	–
323.15 K, 130000 kPa	1161.7	1299.9	1421.1	1528.7	1622.1	–	–	–	–	–
323.15 K, 140000 kPa	1168.7	1307.7	1429.4	1537.4	1631.3	–	–	–	–	–
333.15 K, 100 kPa	990.5	1109.5	1216.5	1312.3	1397.5	659.8	617.9	593.4	579.9	568.6
333.15 K, 10000 kPa	1014.9	1137	1245.9	1343.3	1429.3	–	–	–	–	–
333.15 K, 20000 kPa	1034.7	1159.2	1269.8	1368.5	1455.3	816	769.7	737.4	720.8	703.1
333.15 K, 30000 kPa	1051.5	1177.9	1290	1389.8	1477.3	–	–	–	–	–
333.15 K, 40000 kPa	1066.2	1194.2	1307.5	1408.4	1496.6	930.9	878.9	842	823.8	802.8
333.15 K, 50000 kPa	1079.3	1208.8	1323.2	1424.9	1513.8	–	–	–	–	–
333.15 K, 60000 kPa	1091.1	1222	1337.3	1439.9	1529.4	1024.9	968.2	927.8	907.5	884.3
333.15 K, 70000 kPa	1101.9	1234	1350.3	1453.7	1543.7	–	–	–	–	–
333.15 K, 80000 kPa	1112	1244.9	1362.3	1466.4	1556.9	1106.8	1044.5	1001.6	980	954.4
333.15 K, 90000 kPa	1121.4	1255.4	1373.5	1478.4	1569.3	–	–	–	–	–
333.15 K, 100000 kPa	1130.3	1265.1	1384	1489.4	–	–	1111.7	1067.2	1043.9	1016.8
